# Tests used:
# Sesamum indicum [1] = assay: Phytotoxicity against Sesamum indicum (sesame) plant assessed as yield at 0.42 kg/ha applied using mixing wheel cultivator (reference value: 333 kg/ha); assay type: organism-based; details: in vivo, other
# Sesamum indicum [2] = assay: Phytotoxicity against Sesamum indicum (sesame) plant assessed as stunt in growth at 0.84 kg/ha applied using mixing wheel cultivator (reference value: 0%); assay type: organism-based; details: in vivo, other
# Sesamum indicum [3] = assay: Phytotoxicity against Sesamum indicum (sesame) plant assessed as yield at 1.68 kg/ha applied using mixing wheel cultivator (reference value: 333 kg/ha); assay type: organism-based; details: in vivo, other
# Sesamum indicum [4] = assay: Phytotoxicity against Sesamum indicum (sesame) plant assessed as stunt in growth at 0.42 kg/ha applied using mixing wheel cultivator (reference value: 0%); assay type: organism-based; details: in vivo, other
# Amaranthus tuberculatus [5] = assay: Herbicidal activity against Amaranthus tuberculatus at 0.84 kg/ha applied using mixing wheel cultivator; assay type: functional
# Amaranthus tuberculatus [6] = assay: Herbicidal activity against Amaranthus tuberculatus at 0.42 kg/ha applied using mixing wheel cultivator; assay type: functional
# Sesamum indicum [7] = assay: Phytotoxicity against Sesamum indicum (sesame) plant assessed as yield at 0.84 kg/ha applied using mixing wheel cultivator (reference value: 333 kg/ha); assay type: organism-based; details: in vivo, other
# Sesamum indicum [8] = assay: Phytotoxicity against Sesamum indicum (sesame) plant assessed as stunt in growth at 1.68 kg/ha applied using mixing wheel cultivator (reference value: 0%); assay type: organism-based; details: in vivo, other
# Urochloa platyphylla [9] = assay: Herbicidal activity against Urochloa platyphylla at 1.68 kg/ha applied using mixing wheel cultivator; assay type: functional
# Urochloa platyphylla [10] = assay: Herbicidal activity against Urochloa platyphylla at 0.42 kg/ha applied using mixing wheel cultivator; assay type: functional
# Urochloa platyphylla [11] = assay: Herbicidal activity against Urochloa platyphylla at 0.84 kg/ha applied using mixing wheel cultivator; assay type: functional
# Sesamum indicum [12] = assay: Phytotoxicity against Sesamum indicum (sesame) plant assessed as sesame stand at 0.42 kg/ha applied using mixing wheel cultivator relative to control; assay type: organism-based; details: in vivo, other
# Amaranthus tuberculatus [13] = assay: Herbicidal activity against Amaranthus tuberculatus at 1.68 kg/ha applied using mixing wheel cultivator; assay type: functional
# Sesamum indicum [14] = assay: Phytotoxicity against Sesamum indicum (sesame) plant assessed as sesame stand at 0.84 kg/ha applied using mixing wheel cultivator relative to control; assay type: organism-based; details: in vivo, other
# Sesamum indicum [15] = assay: Phytotoxicity against Sesamum indicum (sesame) plant assessed as sesame stand at 1.68 kg/ha applied using mixing wheel cultivator relative to control; assay type: organism-based; details: in vivo, other
# Sesamum indicum [16] = assay: Phytotoxicity against Sesamum indicum (sesame) plant assessed as sesame stand at 1.12 kg/ha formulated as prowl H2O applied using mixing wheel cultivator relative to control; assay type: organism-based; details: in vivo, other
# Urochloa platyphylla [17] = assay: Herbicidal activity against Urochloa platyphylla at 1.12 kg/ha formulated as prowl H2O applied using mixing wheel cultivator; assay type: functional
# Sesamum indicum [18] = assay: Phytotoxicity against Sesamum indicum (sesame) plant assessed as stunt in growth at 1.4 kg/ha formulated as prowl H2O applied using mixing wheel cultivator (reference value: 0%); assay type: organism-based; details: in vivo, other
# Sesamum indicum [19] = assay: Phytotoxicity against Sesamum indicum (sesame) plant assessed as sesame stand at 0.56 kg/ha formulated as prowl EC applied using mixing wheel cultivator relative to control; assay type: organism-based; details: in vivo, other
# Sesamum indicum [20] = assay: Phytotoxicity against Sesamum indicum (sesame) plant assessed as yield at 1.4 kg/ha formulated as prowl H2O applied using mixing wheel cultivator (reference value: 333 kg/ha); assay type: organism-based; details: in vivo, other
# Sesamum indicum [21] = assay: Phytotoxicity against Sesamum indicum (sesame) plant assessed as stunt in growth at 1.12 kg/ha formulated as prowl H2O applied using mixing wheel cultivator (reference value: 0%); assay type: organism-based; details: in vivo, other
# Sesamum indicum [22] = assay: Phytotoxicity against Sesamum indicum (sesame) plant assessed as sesame stand at 1.12 kg/ha formulated as prowl EC applied using mixing wheel cultivator relative to control; assay type: organism-based; details: in vivo, other
# Amaranthus tuberculatus [23] = assay: Herbicidal activity against Amaranthus tuberculatus at 1.12 kg/ha formulated as prowl EC applied using mixing wheel cultivator; assay type: functional
# Amaranthus tuberculatus [24] = assay: Herbicidal activity against Amaranthus tuberculatus at 0.56 kg/ha formulated as prowl EC applied using mixing wheel cultivator; assay type: functional
# Sesamum indicum [25] = assay: Phytotoxicity against Sesamum indicum (sesame) plant assessed as yield at 2.24 kg/ha formulated as prowl EC applied using mixing wheel cultivator (reference value: 333 kg/ha); assay type: organism-based; details: in vivo, other
# Amaranthus tuberculatus [26] = assay: Herbicidal activity against Amaranthus tuberculatus at 1.12 kg/ha formulated as prowl H2O applied using mixing wheel cultivator; assay type: functional
# Sesamum indicum [27] = assay: Phytotoxicity against Sesamum indicum (sesame) plant assessed as stunt in growth at 1.12 kg/ha formulated as prowl EC applied using mixing wheel cultivator (reference value: 0%); assay type: organism-based; details: in vivo, other
# Amaranthus tuberculatus [28] = assay: Herbicidal activity against Amaranthus tuberculatus at 0.84 kg/ha formulated as prowl H2O applied using mixing wheel cultivator; assay type: functional
# Sesamum indicum [29] = assay: Phytotoxicity against Sesamum indicum (sesame) plant assessed as stunt in growth at 0.56 kg/ha formulated as prowl EC applied using mixing wheel cultivator (reference value: 0%); assay type: organism-based; details: in vivo, other
# Sesamum indicum [30] = assay: Phytotoxicity against Sesamum indicum (sesame) plant assessed as sesame stand at 0.84 kg/ha formulated as prowl H2O applied using mixing wheel cultivator relative to control; assay type: organism-based; details: in vivo, other
# Urochloa platyphylla [31] = assay: Herbicidal activity against Urochloa platyphylla at 2.24 kg/ha formulated as prowl EC applied using mixing wheel cultivator; assay type: functional
# Urochloa platyphylla [32] = assay: Herbicidal activity against Urochloa platyphylla at 0.56 kg/ha formulated as prowl EC applied using mixing wheel cultivator; assay type: functional
# Urochloa platyphylla [33] = assay: Herbicidal activity against Urochloa platyphylla at 1.12 kg/ha formulated as prowl EC applied using mixing wheel cultivator; assay type: functional
# Urochloa platyphylla [34] = assay: Herbicidal activity against Urochloa platyphylla at 0.84 kg/ha formulated as prowl H2O applied using mixing wheel cultivator; assay type: functional
# Sesamum indicum [35] = assay: Phytotoxicity against Sesamum indicum (sesame) plant assessed as yield at 0.84 kg/ha formulated as prowl H2O applied using mixing wheel cultivator (reference value: 333 kg/ha); assay type: organism-based; details: in vivo, other
# Sesamum indicum [36] = assay: Phytotoxicity against Sesamum indicum (sesame) plant assessed as stunt in growth at 2.24 kg/ha formulated as prowl EC applied using mixing wheel cultivator (reference value: 0%); assay type: organism-based; details: in vivo, other
# Sesamum indicum [37] = assay: Phytotoxicity against Sesamum indicum (sesame) plant assessed as stunt in growth at 0.84 kg/ha formulated as prowl H2O applied using mixing wheel cultivator (reference value: 0%); assay type: organism-based; details: in vivo, other
# Amaranthus tuberculatus [38] = assay: Herbicidal activity against Amaranthus tuberculatus at 1.4 kg/ha formulated as prowl H2O applied using mixing wheel cultivator; assay type: functional
# Amaranthus tuberculatus [39] = assay: Herbicidal activity against Amaranthus tuberculatus at 2.24 kg/ha formulated as prowl EC applied using mixing wheel cultivator; assay type: functional
# Urochloa platyphylla [40] = assay: Herbicidal activity against Urochloa platyphylla at 1.4 kg/ha formulated as prowl H2O applied using mixing wheel cultivator; assay type: functional
# Sesamum indicum [41] = assay: Phytotoxicity against Sesamum indicum (sesame) plant assessed as yield at 1.12 kg/ha formulated as prowl EC applied using mixing wheel cultivator (reference value: 333 kg/ha); assay type: organism-based; details: in vivo, other
# Sesamum indicum [42] = assay: Phytotoxicity against Sesamum indicum (sesame) plant assessed as sesame stand at 2.24 kg/ha formulated as prowl EC applied using mixing wheel cultivator relative to control; assay type: organism-based; details: in vivo
# Sesamum indicum [43] = assay: Phytotoxicity against Sesamum indicum (sesame) plant assessed as yield at 0.56 kg/ha formulated as prowl EC applied using mixing wheel cultivator (reference value: 333 kg/ha); assay type: organism-based; details: in vivo, other
# Sesamum indicum [44] = assay: Phytotoxicity against Sesamum indicum (sesame) plant assessed as Sesame stand at 1.4 kg/ha formulated as prowl H2O applied using mixing wheel cultivator relative to control; assay type: organism-based; details: in vivo, other
# Sesamum indicum [45] = assay: Phytotoxicity against Sesamum indicum (sesame) plant assessed as yield at 1.12 kg/ha formulated as prowl H2O applied using mixing wheel cultivator (reference value: 333 kg/ha); assay type: organism-based; details: in vivo, other
compound,measurement,setting,value
C=C(C)CN(CC)c1c([N+](=O)[O-])cc(C(F)(F)F)cc1[N+](=O)[O-] [ETHALFLURALIN],Crop_yield,Sesamum indicum [1],428 kg/ha
same,Activity,Sesamum indicum [2],2%
same,Crop_yield,Sesamum indicum [3],143 kg/ha
same,Activity,Sesamum indicum [4],4%
same,Activity,Amaranthus tuberculatus [5],92%
same,Activity,Amaranthus tuberculatus [6],82%
same,Crop_yield,Sesamum indicum [7],527 kg/ha
same,Activity,Sesamum indicum [8],4%
same,Activity,Urochloa platyphylla [9],97%
same,Activity,Urochloa platyphylla [10],69%
same,Activity,Urochloa platyphylla [11],95%
same,Activity,Sesamum indicum [12],95%
same,Activity,Amaranthus tuberculatus [13],93%
same,Activity,Sesamum indicum [14],78%
same,Activity,Sesamum indicum [15],52%
CCC(CC)Nc1c([N+](=O)[O-])cc(C)c(C)c1[N+](=O)[O-] [PENDIMETHALIN],Activity,Sesamum indicum [16],53%
same,Activity,Urochloa platyphylla [17],80%
same,Activity,Sesamum indicum [18],14%
same,Activity,Sesamum indicum [19],80%
same,Crop_yield,Sesamum indicum [20],240 kg/ha
same,Activity,Sesamum indicum [21],4%
same,Activity,Sesamum indicum [22],55%
same,Activity,Amaranthus tuberculatus [23],74%
same,Activity,Amaranthus tuberculatus [24],85%
same,Crop_yield,Sesamum indicum [25],233 kg/ha
same,Activity,Amaranthus tuberculatus [26],84%
same,Activity,Sesamum indicum [27],3%
same,Activity,Amaranthus tuberculatus [28],96%
same,Activity,Sesamum indicum [29],3%
same,Activity,Sesamum indicum [30],90%
same,Activity,Urochloa platyphylla [31],85%
same,Activity,Urochloa platyphylla [32],63%
same,Activity,Urochloa platyphylla [33],83%
same,Activity,Urochloa platyphylla [34],71%
same,Crop_yield,Sesamum indicum [35],534 kg/ha
same,Activity,Sesamum indicum [36],16%
same,Activity,Sesamum indicum [37],0%
same,Activity,Amaranthus tuberculatus [38],83%
same,Activity,Amaranthus tuberculatus [39],90%
same,Activity,Urochloa platyphylla [40],73%
same,Crop_yield,Sesamum indicum [41],382 kg/ha
same,Activity,Sesamum indicum [42],27%
same,Crop_yield,Sesamum indicum [43],367 kg/ha
same,Activity,Sesamum indicum [44],38%
same,Crop_yield,Sesamum indicum [45],288 kg/ha
CCCN(CCC)c1c([N+](=O)[O-])cc(C(F)(F)F)cc1[N+](=O)[O-] [TRIFLURALIN],Crop_yield,Sesamum indicum [1],587 kg/ha
same,Activity,Sesamum indicum [2],2%
same,Crop_yield,Sesamum indicum [3],406 kg/ha
same,Activity,Sesamum indicum [4],0%
same,Activity,Amaranthus tuberculatus [5],85%
same,Activity,Amaranthus tuberculatus [6],90%
same,Crop_yield,Sesamum indicum [7],342 kg/ha
same,Activity,Sesamum indicum [8],4%
same,Activity,Urochloa platyphylla [9],96%
same,Activity,Urochloa platyphylla [10],86%
same,Activity,Urochloa platyphylla [11],91%
same,Activity,Sesamum indicum [12],99%
same,Activity,Amaranthus tuberculatus [13],92%
same,Activity,Sesamum indicum [14],76%
same,Activity,Sesamum indicum [15],67%

# From ChEMBL document CHEMBL3045858, “Weed control and sesame (Sesamum indicum L.) response to preplant incorporated herbicides and method of incorporation” (Crop Prot, 2007)
